For 80 molecules, RP-LC retention time results are on record in the METLIN SMRT retention time set (Domingo-Almenara et al. 2019).

The nature of the data set: gradient 5% acetonitrile 3 min, to 50% in 2 min, to 85% in 15 min, held 3 min, 100 µL/min. The following applies: column: Zorbax Extend-C18 2.1 x 50 mm; eluents: water / acetonitrile, 0.1% formic acid. The method, boiled down:
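Data were gathered over 3 months by HPLC coupled to a quadrupole time-of-flight mass spectrometer, operated in positive and negative ionization mode. Mixtures of ~100 pure standards ran on a Zorbax Extend-C18 column (2.1 × 50 mm, 1.8 μm) at 100 μL/min, with water and acetonitrile each containing 0.1% formic acid and dead and dwell volumes of 40 μL and 900 μL. Retention time was read from adduct peaks picked by computer and checked manually.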
Take `COc1ccc(OC)c(NC(=O)N2CCN(c3ccc(=O)n(-c4ccc(C)cc4)n3)CC2)c1`: the RP-LC retention time was found to be 835 s.
`CCn1c(N2CCCC(C(=O)NCCN3CCN(c4ccccc4)CC3)C2)cc(=O)n(C)c1=O` (stereo not given) had an RP-LC retention time of 638 s.
The result for `Cc1nc2c(c(=O)n1CC(=O)NCc1ccccc1Br)CCN(Cc1ccccc1)C2` reads 650 s; that for `CC(C)(C)C(O)CCNC(=O)C(=O)NCc1ccccc1` (stereo not given), 740 s.
As for `N#Cc1ccc(S(=O)(=O)N2CCC(Cc3nc(-c4ccncc4)n[nH]3)C2)cc1` (stereo not given), the RP-LC retention time is 620 s.
The same measure for `Cc1cc(C)c(S(=O)(=O)N2CC(c3nc(-c4ccncc4)no3)C2)cc1C`: 974 s; for `N#Cc1ccc(-c2nc(-c3cccc(-c4ccn[nH]4)c3)no2)cc1`: 917 s; for `Cc1ccc(CNC(=O)c2cc3n(n2)CC(C)(C(=O)NCc2ccc(F)cc2)N(C)C3=O)cc1` (stereo not given): 741 s.
In turn, `O=C(NC(c1ccccc1)c1nnc(-c2ccccc2)o1)c1ccco1` (stereo not given) returned an RP-LC retention time of 876 s.
With `CCn1cc(S(=O)(=O)N2CCCC(c3nnnn3-c3ccccc3)C2)cn1` (stereo not given), the RP-LC retention time stood at 807 s.
The same measure for `CCn1cc(CCNS(=O)(=O)CC)c2cccnc21`: 630 s; for `N#Cc1ccc(Cl)cc1NC(=O)C(=O)NCC(O)C1CCCCC1` (stereo not given): 825 s; for `CCCn1cc(S(=O)(=O)N2CCN(c3cccc(Cl)c3)CC2)c2cccnc21`: 761 s.
Molecule `CCN1/C(=C/C(C)=O)Sc2ccc(OC)cc21` returned an RP-LC retention time of 845 s.
Consider `CCc1noc2nc(C)n(CC(=O)NCc3ccccc3C)c(=O)c12`, for which the RP-LC retention time turned out to be 782 s.
The same measure for `CCCc1nnc(NC(=O)C2CC(=O)N(CCc3c[nH]c4ccc(Cl)cc34)C2)s1` (stereo not given): 764 s; for `CCSc1nnc(-c2nn(C)c3c2CN(S(=O)(=O)Cc2ccccc2Cl)CC3)n1CC`: 960 s; for `COc1ccc(CC(=O)N2CCC3(C2)C(=O)Nc2ccccc23)cc1Cl` (stereo not given): 761 s.
`O=C(c1csc(S(=O)(=O)N2CCC(C(=O)N3CCCCCC3)CC2)c1)N1CCCCCC1` registered an RP-LC retention time of 876 s.
Consider `CC(C)CNC(=O)CCc1nc2ccccc2n(CC(=O)NCCc2ccc(Cl)cc2)c1=O`, for which the RP-LC retention time worked out at 855 s.
On to `Cn1cc(-c2nc(C(=O)NCc3cccc(C(F)(F)F)c3)cs2)c2cccnc21`, for which the RP-LC retention time is 983 s.
The result for `CCN1CCN(CCCNC(=O)C2CCCN(c3ncnc4onc(C)c34)C2)CC1` (stereo not given) reads 557 s; that for `CC(C)C(=O)Nc1ccc(-n2cnc(C(=O)NC3CCCCCC3)c2)nc1`, 806 s; that for `COc1ccc(OC)c(NC(=O)N2CCOc3ccc(Cl)cc32)c1`, 1010 s.
The result for `CCc1nc(-c2ccc(OC3CCN(C(=O)c4sc(C)nc4C)C3)cc2)no1` (stereo not given) reads 696 s; that for `Cc1cccc(NC(=O)C2CCCN(c3nc4ccccc4nc3C(F)(F)F)C2)c1C` (stereo not given), 830 s; that for `O=C(Nc1cc(F)cc(F)c1)Nc1cccc(-c2ccc(N3CCOCC3)nn2)c1`, 748 s.
`COCCN(Cc1ccncc1)S(=O)(=O)c1ccc(-c2ccccc2)cc1` returned an RP-LC retention time of 630 s.
Consider `CCn1ncc(NC(=O)c2ccccc2F)c(N2CCOCC2)c1=O`, for which the RP-LC retention time came out at 842 s.
The result for `CCN1C(=O)C2CCCCN2c2ccc(C(=O)NCc3ccccc3)cc21` (stereo not given) reads 908 s; that for `COc1cccc(CNC(=O)Cn2c(C)cc(-c3nnc(C4CCC4)o3)c2C)c1`, 834 s; that for `CC1CCN(c2nc3c(c(=O)n(Cc4ccccc4F)c(=O)n3C)n2C)CC1`, 1130 s.
The same measure for `CC(C)c1cc(C(=O)Nc2cccc(F)c2)nc2ccnn12`: 1140 s; for `Cc1cc(N2CCCC2)n2nc(CN(C)Cc3ccccc3)nc2n1`: 593 s; for `O=C1NCCN2CC3(CCN(S(=O)(=O)Cc4ccccc4)CC3)CC12` (stereo not given): 594 s.
The same measure for `O=C(c1nnc(-c2ccc(S(=O)(=O)N3CCOCC3)cc2)o1)N1CCN(c2ccccc2)CC1`: 905 s; for `CCOc1ccc(NC(=O)N(C)CCc2noc(COc3ccccc3)n2)cc1`: 890 s; for `COc1ccc(-c2nnc(Cc3nc(-c4ccc(C)cc4)no3)o2)cc1OC`: 762 s.
Molecule `COCCCNC(=O)C1CCN(C(=O)c2ncn3c2COC(c2ccc(F)cc2)C3)CC1` (stereo not given) came in with an RP-LC retention time of 626 s.
The same measure for `Cc1cccc(NS(=O)(=O)c2cc3n(c2)CCCNC3=O)c1C`: 658 s; for `CCN(CC)C(=O)c1ccc2c(c1)N(CC(=O)N1CCOCC1)C(=O)CS2`: 642 s.
The same measure for `CCc1nc(N2CCC(C(=O)NCc3ccc(OC)cc3OC)CC2)c2c(C)scc2n1`: 706 s.
`Cc1nc(-c2ccccc2)cc2nn(CC(=O)Nc3ccccc3Br)c(=O)n12`: the RP-LC retention time came to 995 s.
In turn, `CCn1cc(S(=O)(=O)N2CCOc3ccc(NC(=O)C4CC4)cc3C2)cn1` gave an RP-LC retention time of 734 s.
The same measure for `CCN(CC)CCCN(c1ccccc1)C1Cc2ccccc2C1`: 754 s.
The molecule `COCCNC(=O)C1CCCN(c2nccc(C)n2)C1` (stereo not given) returned an RP-LC retention time of 584 s.
Take `CC(C)n1nnc2cc(C(=O)N(C)CC(=O)Nc3ccc(Cl)cc3)ccc21`: the RP-LC retention time came out at 793 s.
The result for `CC(C)CCNC(=O)c1ccc2c(=O)n(-c3ccc(F)cc3)c(N3CCCC3)nc2c1` reads 912 s.
The result for `Cc1ccc(NC(=O)C2CC(=O)N(c3cccc(NC(=O)C(C)C)c3)C2)cc1Cl` (stereo not given) reads 872 s.
`CCN1C(=O)COc2ccc(-c3noc(-c4ccc(CS(=O)(=O)c5ccc(C)cc5)cc4)n3)cc21`: the RP-LC retention time amounted to 1100 s.
The same measure for `O=C(O)C1CCN(c2nc3ccc(-c4ccccc4)nc3s2)CC1`: 868 s; for `CCCCN(C)C(=O)c1ccc(-c2nnc3ccc(NC(=O)CC)cn23)cc1`: 740 s; for `Cc1cccc2c(=O)n(C3CCN(S(=O)(=O)c4ccc(CC(C)C)cc4)CC3)cnc12`: 1230 s.
The same measure for `CCn1nc(-c2ccccc2)c(-c2ccccc2)c(C(=O)NCCN(C)C)c1=O`: 648 s.
In turn, `CC(C)CNC(=O)N1CCCC(c2nc(C(C)C)no2)CCNC(=O)CC1` (stereo not given) returned an RP-LC retention time of 679 s.
The result for `COC(=O)C1=CN(c2ccc(F)c(F)c2)c2ccccc2S1(=O)=O` reads 789 s.
The result for `O=C1CCSc2c1cccc2C(=O)N1CCOCC1` reads 601 s.
On to `COc1ccc(CN(Cc2cc(=O)n3ccccc3n2)CC(C)C)cc1OC`, for which the RP-LC retention time is 615 s.
The same measure for `O=C(CN1CCCc2nc(C3CC3)ncc2C1=O)NCCCN1CCOCC1`: 563 s; for `Cc1ccc(S(=O)(=O)N2CC(=O)N(c3cccc(F)c3)C(C)(C(=O)NCc3ccccc3)C2)cc1` (stereo not given): 948 s.
Take `COc1ccc2cc(C(=O)N3CCC(CC(=O)NCC4CCCO4)CC3)[nH]c2c1` (stereo not given): the RP-LC retention time turned out to be 681 s.
For the molecule `CSc1nnc(-c2nn(C)c3c2CN(C(=O)c2cccc(Cl)c2)CC3)n1C`, the RP-LC retention time amounted to 737 s.
The same measure for `Cc1ccc(CNC(=O)CN2CCN(Cc3ccccc3C)C(=O)C2=O)cc1`: 779 s; for `Cn1nc(-c2nnc(-c3ccccc3)o2)c2c1CCN(S(=O)(=O)c1ccccc1Cl)C2`: 938 s; for `COc1ccc(CC(=O)N(C)C2CCN(c3nccnc3OC)C2)cc1` (stereo not given): 684 s.
`CCCN(C)S(=O)(=O)c1cc(-c2nnc(C(C)C)o2)co1` displayed an RP-LC retention time of 872 s.
In turn, `Cc1cc(C)cc(C(=O)NCc2ccc(N3CCOCC3)nc2)c1` gave an RP-LC retention time of 628 s.
The same measure for `CCOCCCNC(=O)C1CCCN(c2nnc(C)c3c(C)n(-c4ccccc4)nc23)C1` (stereo not given): 655 s; for `Cc1cc2nn(CC(=O)Nc3ccc(Br)cc3F)c(=O)n2c(-c2ccc(F)cc2)n1`: 952 s.
In turn, `CCc1noc(NC(C)=O)c1-c1ccc(OC)c(S(=O)(=O)NCc2ccccc2)c1` displayed an RP-LC retention time of 766 s.
`Cc1cc(C)n2nc(SCC(=O)NCCc3ccc(Cl)cc3)nc2n1` displayed an RP-LC retention time of 719 s.
The same measure for `Cn1c(C2CCN(C(=O)Cc3ccc(Cl)cc3)C2)nc2ccncc21` (stereo not given): 551 s; for `CN1CC[C@@H]2CN3CCc4cccc(c43)[C@@H]2C1`: 644 s; for `CCN1C(=O)CN(C(=O)c2ccsc2)CC12CCOCC2`: 621 s.
The same measure for `COc1cc(C)c(C(C)C)cc1S(=O)(=O)NCc1ccco1`: 594 s; for `CCn1cc(-c2nc(C(=O)NCc3ccc(F)cc3Cl)cs2)c2cccnc21`: 1070 s.
The same measure for `CCN(CC)c1cc(CNC(=O)Nc2cc(Cl)c(OC)cc2OC)ccn1`: 638 s.
In turn, `COc1ccc(S(=O)(=O)N2CCC(C(=O)NCc3csc(-c4ccccc4)n3)CC2)cc1` had an RP-LC retention time of 885 s.
The same measure for `COc1cccc(C(O)CN2CCN(c3ccccc3C)CC2)c1` (stereo not given): 691 s.
Molecule `CSc1nc(Nc2cccc(Cl)c2)c(C#N)c(-c2ccccc2)n1` gave an RP-LC retention time of 1280 s.
